Source: paper PMC8386742, “Discovery of N-aryl sulphonamide-quinazoline derivatives as anti-gastric cancer agents in vitro and in vivo via activating the Hippo signalling pathway” (Journal of Enzyme Inhibition and Medicinal Chemistry, 2021)

Assays:
[1] = tested on: MGC-803 and SGC-7901 cells; test: Cell cycle distribution in gastric cancer cells; format: cell-based; conditions: 24 h
From the text: Because of the potent inhibitory activity on cell viability of compound 9i, we next explored the effects of compound 9i on cell proliferation in MGC-803 and SGC-7901 cells.
Figure 6. Gastric cancer cell proliferation inhibition inhibited by 9i. Density ratios relative to β-Actin were shown on the top of each Western blotting band. (A,B) Cell growth curves of in MGC-803 and SGC-7901 cells after the treatment with indicated concentrations of 9i for different hours; (C,D). Gastric cancer cell colony formation, cells were treated for 7 days; (E) Cell cycle distribution of MGC-803 and SGC-7901 after the treatment with indicated concentrations of 9i for 24 h; (F,G) Cell cycle related proteins in gastric cancer cells after the treatment with indicated concentrations of 9i for 24 h.

MGC-803 cells = test: MTT antiproliferative assay, MGC-803 cells; format: cell-based, human; conditions: exposure for 48 h
Protocol: (§1) The in vitro antiproliferative activities of new target compounds 6a–6g, 9a–9i, 10a–10j, 11a–11j, and 14a–14d were evaluated against four human cancer cell lines (MGC-803, PC-3, HCT-116, and MCF-7) using MTT assay and 5-FU as a positive drug. The following Tables 1–[4] depicted the results of in vitro antiproliferative activity.
(§2) Cell lines used were cultured in humidified incubator in a humidified atmosphere of 5% CO2 and 95% air. The RPMI-1640 medium was supplemented with 10% foetal bovine serum, penicillin (100 U/ml) and streptomycin (0.1 mg/ml).
(§3) Cell lines were seeded into 96-well plates and incubated for 24 h. Then cells were treated with different concentrations of compounds. And after another 48 h, MTT reagent (20 μL per well) was added to each well and then incubated at 37 °C for 4 h. After the suspension was discarded, formazan was then dissolved with DMSO. Absorbencies of formazan solution were measured at 490 nm. The IC50 values of tested compounds were calculated by SPSS version 17.0.

PC-3 cells = test: MTT antiproliferative assay, PC-3 cells; format: cell-based, human; conditions: Homo sapiens, PC-3, exposure for 48 h
Protocol: as §1, §2, §3

GES-1 cells = test: MTT antiproliferative assay, GES-1 normal gastric epithelial cells; format: cell-based
From the text: Furthermore, MGC-803 cells were more sensitive to the compounds than HCT-116, PC-3 cells MCF-7 cells. Moreover, we chose two other common gastric cancer cell lines (HGC-27 and SGC-7901) and another two normal cells GES-1 and HUEVC cells to examine for the inhibitory activity of compound 9i.
Since compound 9i presented high potency against cancer cells and MGC-803 cells was more sensitive to compound 9i, compound 9i, MGC-803, another two gastric cancer cells SGC-7901, HGC-27, and GES-1(normal gastric epithelial cells) were used for further detection. As shown in Figures 3(A,B), compound 9i inhibited three gastric cancer cell lines in the dose and time-dependent manners. The inhibition ratios of compound 9i against three gastric cancer cells were all above 50% after 48 h in the high dosage group. Moreover, MGC-803 and SGC-7901 cell lines were more sensitive and compound 9i inhibited over 65% cell viability with high dose treatment for 48 h.
as §2, §3

SGC-7901 cells = test: Annexin V-FITC/PI cell apoptosis assay, SGC-7901 cells; format: cell-based; conditions: SGC-7901, high dose, 48 h
Protocol: Bcl-2 regulated by the Hippo/YAP plays an important role in cell apoptosis. Therefore, we next examined the effects of compound 9i on cell apoptosis. MGC-803 and SGC-7901 cells were treated with compound 9i for 48 h, as shown in Figures 5(A,B), the nuclei of gastric cancer are dense and fragmented, and cells became round, small, and was induced to die. To determine the influence of compound 9i on cell death, MGC-803 and SGC-7901 cells treated with compound 9i were stained with Annexin V-FITC/PI. As shown in Figure 5(C), the high dose compound 9i treatment group induced over 60% of cell apoptosis at 48 h. As shown in Figure 5(D), some other apoptosis-related proteins were also regulated by compound 9i in MGC-803 and SGC-7901 cells. Compound 9i caused dose-dependent decreases of anti-apoptosis proteins c-IAP and Mcl-1. […] Mitochondrial membrane potential depolarisation and translocation from the mitochondria to the cytoplasm of cytochrome c are two key steps involved in the intrinsic apoptosis pathway. As shown in Figures 5(F–H), compound 9i depolarised mitochondrial membrane potential and induced the translocation of cytochrome c.
Figure 5. Compound 9i induced apoptosis in MGC-803 and SGC-7901 cells. Density ratios relative to β-Actin were shown on the top of each Western blotting band. […] The cell line of each row appears only in tiny plot titles that cannot be read with certainty. […]

MCF-7 cells = test: MTT antiproliferative assay, MCF-7 cells; format: cell-based, human; conditions: exposure for 48 h
Protocol: as §1, §2, §3

Question: How did the cell cycle arrest [1] turn out when COc1ccc(S(=O)(=O)N(Cc2nc(C)c3ccccc3n2)c2cc(OC)c(OC)c(OC)c2)cc1 [Compound 9i, 4-Methoxy-N-((4-methylquinazolin-2-yl)methyl)-N-(3,4,5-trimethoxyphenyl) benzene-sulfonamide] was run?
Answer: remarkable and dose-dependent G2/M arrest

Question: What about the IC50 (MGC-803 cells; Homo sapiens, MGC-803, 48 h) of the same molecule?
Answer: 360 ± 20 nM

Question: What about the IC50 (MGC-803 cells) of the same molecule?
Answer: 363 nM

Question: What about the IC50 (PC-3 cells) of the same molecule?
Answer: 1040 ± 130 nM

Question: And the IC50 (GES-1 cells; Homo sapiens, GES1, MTT, exposure for 48 h, non-cancer cell line)?
Answer: 894 nM

Question: And the “cytotoxicity towards GES-1 cells” value (GES-1 cells; normal gastric epithelial cells)?
Answer: low cytotoxicity

Question: What about the cell apoptosis (SGC-7901 cells) of the same molecule?
Answer: over 60%

Question: What about the IC50 (MCF-7 cells; Homo sapiens, MCF7, 48 h) of the same molecule?
Answer: 816 nM

Question: And the IC50 (MCF-7 cells)?
Answer: 810 ± 60 nM
